Patent publication US10154974B1, “Use of abscisic acid for the prevention and treatment of malaria” (The Regents of the University of California, priority 2015, dated 2018)

System: P. falciparum
Experiment: P. falciparum infection of A. stephensi fed a supplemented infected bloodmeal
Type: in vivo
Description: For P. falciparum infections A. stephensi were fed on a 1:1 ratio of P. falciparum-infected RBCs containing a treatment or diluent control and provided in a Hemotek Insect Feeding System (Discovery Workshops). ABA was eluted in 100% ethanol and stored at −20 C for up to 6 months. ABA stock was diluted with PBS and added into blood immediately before feeding for final concentrations of 10 nM and 100 nM. For L-NAME feeds mosquitoes were maintained on sugar cubes and water pads containing 1 mg/mL L-NAME for 72 hours before the feed and throughout the course of infection. Infection prevalence data were analyzed by Fisher's Exact Test. Oocyst intensities were analyzed by Mann-Whitney test.

COC(=O)[C@@H](N)CCCNC(=N)N[N+](=O)[O-] [L-NAME, Nω-Nitro-L-arginine methyl ester, reference compound]
P. falciparum infection prevalence (1 mg/ml L-NAME added to 100 nM ABA-supplemented infected bloodmeal): rescued P. falciparum infection prevalence back to control levels
P. falciparum infection (1 mg/ml L-NAME alone): no effect
